In ChEMBL document CHEMBL1201862, “PubChem BioAssay data set” (2004) one finds IC50, AC50 and EC50 data, which are given here for ten compounds.

Calls of active or inactive are those of the source. Bounds are passed on as bounds.

Data set [1] concerns the target Glucose-6-phosphate 1-dehydrogenase (Homo sapiens, UniProt P11413). The experiment in a line: inhibition of Homo sapiens G6PD, dose series – biochemical, fluorescence, selectivity assay for P. falciparum G6PD inhibitor project, dose response (AID 504792). Format: functional.
For data set [2], the target named is T1, High affinity choline transporter 1 (Homo sapiens, UniProt Q9GZV3).
T1 sequence (Q9GZV3 whole entry): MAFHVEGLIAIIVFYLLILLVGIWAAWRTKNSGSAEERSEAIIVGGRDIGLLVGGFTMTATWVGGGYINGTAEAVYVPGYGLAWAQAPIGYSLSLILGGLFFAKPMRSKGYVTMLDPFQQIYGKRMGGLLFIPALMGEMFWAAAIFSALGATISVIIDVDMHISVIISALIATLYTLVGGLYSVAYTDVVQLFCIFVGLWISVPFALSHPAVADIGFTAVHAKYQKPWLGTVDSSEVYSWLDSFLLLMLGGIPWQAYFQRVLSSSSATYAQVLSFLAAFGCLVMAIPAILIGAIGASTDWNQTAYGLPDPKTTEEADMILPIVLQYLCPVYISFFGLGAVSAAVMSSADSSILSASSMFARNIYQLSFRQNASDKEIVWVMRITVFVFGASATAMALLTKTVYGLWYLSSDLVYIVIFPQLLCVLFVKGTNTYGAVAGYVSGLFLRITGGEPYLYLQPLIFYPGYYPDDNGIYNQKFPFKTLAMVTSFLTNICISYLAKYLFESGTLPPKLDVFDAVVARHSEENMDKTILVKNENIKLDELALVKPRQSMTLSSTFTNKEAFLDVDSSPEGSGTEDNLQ
The data set can be described thus: human choline transporter blockers, potency – cell-based, 5-point CRC, membrane potential dye, dose response (AID 504840). Format: functional.

Data set [3] addresses T2, Leucine aminopeptidase (Plasmodium falciparum 3D7, UniProt Q8IL11).
T2 sequence (Q8IL11 whole entry): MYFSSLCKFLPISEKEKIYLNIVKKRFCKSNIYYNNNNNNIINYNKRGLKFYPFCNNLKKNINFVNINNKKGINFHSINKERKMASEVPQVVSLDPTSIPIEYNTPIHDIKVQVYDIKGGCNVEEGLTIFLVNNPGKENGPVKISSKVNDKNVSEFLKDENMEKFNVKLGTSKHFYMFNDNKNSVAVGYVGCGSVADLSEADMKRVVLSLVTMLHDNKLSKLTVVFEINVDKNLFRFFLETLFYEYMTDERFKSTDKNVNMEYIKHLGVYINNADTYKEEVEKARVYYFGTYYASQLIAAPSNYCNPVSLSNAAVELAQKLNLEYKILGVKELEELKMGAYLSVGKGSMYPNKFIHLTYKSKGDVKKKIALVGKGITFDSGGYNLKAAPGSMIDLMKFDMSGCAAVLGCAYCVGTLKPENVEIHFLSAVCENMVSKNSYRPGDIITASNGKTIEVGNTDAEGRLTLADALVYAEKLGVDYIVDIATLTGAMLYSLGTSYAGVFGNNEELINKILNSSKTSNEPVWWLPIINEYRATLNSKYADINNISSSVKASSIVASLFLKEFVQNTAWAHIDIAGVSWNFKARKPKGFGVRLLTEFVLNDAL
The data set can be described thus: P. falciparum M17LAP inhibitors, primary screen, biochemical, fluorogenic H-Leu-NHMec substrate, 1536-well (AID 1619). Format: functional.

In data set [4] the target is T3, Mannose-6-phosphate isomerase (Homo sapiens, UniProt P34949).
T3 sequence (P34949 whole entry): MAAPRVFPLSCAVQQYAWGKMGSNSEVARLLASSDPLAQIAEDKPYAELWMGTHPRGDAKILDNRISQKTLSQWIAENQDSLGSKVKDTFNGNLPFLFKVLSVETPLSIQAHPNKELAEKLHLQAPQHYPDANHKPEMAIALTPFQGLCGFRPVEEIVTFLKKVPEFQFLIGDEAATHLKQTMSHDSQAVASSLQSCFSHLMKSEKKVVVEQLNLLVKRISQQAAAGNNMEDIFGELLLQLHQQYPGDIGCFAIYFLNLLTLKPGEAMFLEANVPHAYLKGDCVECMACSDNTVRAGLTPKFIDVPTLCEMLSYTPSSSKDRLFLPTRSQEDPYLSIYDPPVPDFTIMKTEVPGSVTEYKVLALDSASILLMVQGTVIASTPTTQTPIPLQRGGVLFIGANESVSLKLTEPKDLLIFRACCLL
The data set can be described thus: MPI enzyme activity inhibition – biochemical, fluorescence intensity, coupled assay, primary screen (AID 1209).

In data set [5] the target is T4, Phosphomannomutase 2 (Homo sapiens, UniProt O15305).
T4 sequence (O15305 whole entry): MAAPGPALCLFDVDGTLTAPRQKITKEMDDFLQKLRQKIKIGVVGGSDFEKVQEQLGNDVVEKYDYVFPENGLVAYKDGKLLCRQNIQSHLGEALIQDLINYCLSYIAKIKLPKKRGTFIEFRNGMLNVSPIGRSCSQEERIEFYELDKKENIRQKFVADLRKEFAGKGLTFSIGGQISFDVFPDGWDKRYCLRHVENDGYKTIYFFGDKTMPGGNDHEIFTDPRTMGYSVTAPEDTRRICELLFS
The experiment in a line: Counter screen SAR assay for PMM2 inhibitors via a fluorescence intensity assay. [Related pubchem assays (depositor defined):AID1545, AID1574]. A general note: The purpose of a counterscreen is to sort out artefacts and off-target activity.

The target in data set [6] is T3, Mannose-6-phosphate isomerase. The experiment in a line: phosphomannose isomerase inhibition – biochemical, fluorescence intensity, confirmation (AID 1535).
Data set [7] has as its system Escherichia coli. The data set can be described thus: microbe, parasite or virus in culture.
In data set [8] the target is UDP-galactopyranose mutase (Mycobacterium tuberculosis, UniProt P9WIQ1). The experiment in a line: Inhibitors of Mycobacterium tuberculosis UDP-galactopyranose mutase (UGM) enzyme Measured in Biochemical System Using Plate Reader - 2105-02_Inhibitor_Dose_CherryPick_Activity. [Related pubchem assays (depositor defined):AID504439].
UDP-galactopyranose mutase, sequence (P9WIQ1 whole entry): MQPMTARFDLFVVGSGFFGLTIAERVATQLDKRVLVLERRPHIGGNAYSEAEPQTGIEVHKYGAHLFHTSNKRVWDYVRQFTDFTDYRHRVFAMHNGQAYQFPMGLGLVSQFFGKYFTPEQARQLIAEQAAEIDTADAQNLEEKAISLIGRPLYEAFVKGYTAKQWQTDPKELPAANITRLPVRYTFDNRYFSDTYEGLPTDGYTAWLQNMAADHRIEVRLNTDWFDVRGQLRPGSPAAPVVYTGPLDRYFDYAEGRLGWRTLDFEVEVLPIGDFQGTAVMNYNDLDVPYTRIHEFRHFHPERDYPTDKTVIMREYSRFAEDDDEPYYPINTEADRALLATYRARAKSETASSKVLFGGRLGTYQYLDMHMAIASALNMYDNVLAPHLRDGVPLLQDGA
Data set [9] concerns the target T5, Corticotropin-releasing factor receptor 2/Corticotropin-releasing factor-binding protein (Homo sapiens, UniProt P24387+Q13324).
T5 sequence (Q13324 whole entry): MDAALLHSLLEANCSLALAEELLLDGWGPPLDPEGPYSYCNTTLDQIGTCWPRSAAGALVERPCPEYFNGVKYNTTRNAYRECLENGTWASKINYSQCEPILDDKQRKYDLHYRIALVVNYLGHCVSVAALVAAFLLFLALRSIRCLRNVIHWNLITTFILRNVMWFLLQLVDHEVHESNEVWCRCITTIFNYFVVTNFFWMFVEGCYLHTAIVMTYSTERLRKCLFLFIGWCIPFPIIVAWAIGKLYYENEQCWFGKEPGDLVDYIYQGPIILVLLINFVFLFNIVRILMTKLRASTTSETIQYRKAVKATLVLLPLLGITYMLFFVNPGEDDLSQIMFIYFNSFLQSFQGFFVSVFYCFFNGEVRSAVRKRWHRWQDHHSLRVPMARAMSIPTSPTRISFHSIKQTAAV
T5 sequence (P24387 whole entry): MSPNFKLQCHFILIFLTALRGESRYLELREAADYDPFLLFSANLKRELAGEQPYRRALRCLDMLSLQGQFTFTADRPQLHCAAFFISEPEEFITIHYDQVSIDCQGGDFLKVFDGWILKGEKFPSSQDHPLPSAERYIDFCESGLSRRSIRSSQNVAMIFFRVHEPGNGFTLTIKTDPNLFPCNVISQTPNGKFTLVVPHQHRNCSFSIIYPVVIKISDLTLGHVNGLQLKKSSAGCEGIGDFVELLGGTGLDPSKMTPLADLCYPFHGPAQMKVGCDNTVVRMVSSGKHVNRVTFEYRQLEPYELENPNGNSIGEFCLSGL
The data set can be described thus: activators of CRF receptor 2 with binding protein – uHTS hits, confirmation (AID 602473). Format: functional. As to conditions: read-out: EC50_Mean.

Data set [10] relates to HeLa. The experiment in a line: ATP-based viability loss in HeLa cells – cell-based, CellTiter-Glo luminescence, cherry-pick samples, cytotoxicity control for MITF activator project, dose response (AID 540259). Format: functional. As to conditions: Homo sapiens.
In data set [11] the target is FAD-linked sulfhydryl oxidase ALR (Homo sapiens, UniProt P55789). The data set can be described thus: ALR-catalysed DTT oxidation blockers – biochemical, H2O2 detection, luminescence, cherry-pick, dose response (AID 493248).
FAD-linked sulfhydryl oxidase ALR, sequence (P55789 whole entry): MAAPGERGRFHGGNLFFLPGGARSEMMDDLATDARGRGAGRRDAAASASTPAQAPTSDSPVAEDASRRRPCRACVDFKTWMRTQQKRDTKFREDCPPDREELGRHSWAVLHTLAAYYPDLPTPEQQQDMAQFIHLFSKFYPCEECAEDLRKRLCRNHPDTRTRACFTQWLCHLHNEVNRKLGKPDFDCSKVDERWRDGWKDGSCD
In data set [12] the target is Cytochrome P450 2D6 (Homo sapiens, UniProt P10635).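 Note: CYP2D6 member of a cytochrome P450 panel assay.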
Cytochrome P450 2D6, sequence (P10635 whole entry): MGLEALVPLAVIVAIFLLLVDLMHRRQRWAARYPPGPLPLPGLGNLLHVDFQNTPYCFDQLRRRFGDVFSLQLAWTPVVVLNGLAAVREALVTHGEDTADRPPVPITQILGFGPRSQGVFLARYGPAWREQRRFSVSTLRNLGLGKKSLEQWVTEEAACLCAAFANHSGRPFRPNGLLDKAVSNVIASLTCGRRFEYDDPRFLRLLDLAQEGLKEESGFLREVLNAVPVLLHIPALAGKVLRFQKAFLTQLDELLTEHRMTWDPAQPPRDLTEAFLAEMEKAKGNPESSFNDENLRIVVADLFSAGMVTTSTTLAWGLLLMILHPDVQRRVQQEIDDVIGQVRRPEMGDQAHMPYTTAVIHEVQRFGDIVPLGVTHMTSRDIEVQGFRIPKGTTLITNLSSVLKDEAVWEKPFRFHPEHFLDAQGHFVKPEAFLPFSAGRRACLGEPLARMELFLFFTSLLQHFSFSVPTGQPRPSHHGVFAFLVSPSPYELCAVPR
Data set [13] addresses Cytochrome P450 2C9 (Homo sapiens, UniProt P11712).
Data set [14] has as its target T6, Rac GTPase-activating protein 1 (Homo sapiens, UniProt Q9H0H5).
T6 sequence (Q9H0H5 whole entry): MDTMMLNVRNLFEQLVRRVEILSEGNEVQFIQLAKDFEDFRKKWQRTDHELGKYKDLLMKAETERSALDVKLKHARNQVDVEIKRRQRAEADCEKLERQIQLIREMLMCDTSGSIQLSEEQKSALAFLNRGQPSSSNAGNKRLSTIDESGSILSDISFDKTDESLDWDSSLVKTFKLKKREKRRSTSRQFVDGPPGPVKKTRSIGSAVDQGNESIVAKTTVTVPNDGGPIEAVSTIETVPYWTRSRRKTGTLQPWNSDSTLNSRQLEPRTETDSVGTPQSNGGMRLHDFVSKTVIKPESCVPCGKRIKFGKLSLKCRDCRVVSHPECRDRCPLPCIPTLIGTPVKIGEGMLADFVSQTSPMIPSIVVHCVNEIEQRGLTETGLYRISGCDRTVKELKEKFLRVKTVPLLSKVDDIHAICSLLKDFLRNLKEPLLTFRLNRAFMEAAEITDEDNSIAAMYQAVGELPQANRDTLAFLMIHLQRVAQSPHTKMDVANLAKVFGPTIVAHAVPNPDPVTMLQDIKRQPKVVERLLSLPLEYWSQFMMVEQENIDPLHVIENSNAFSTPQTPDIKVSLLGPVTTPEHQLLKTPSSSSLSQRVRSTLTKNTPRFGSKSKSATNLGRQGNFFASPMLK
The data set can be described thus: blockers of MgcRacGAP-driven Rac1 GTP hydrolysis – biochemical, ADP Hunter fluorescence, primary and confirmatory, confirmation (AID 624330). Format: functional.

Glucose-6-phosphate 1-dehydrogenase, sequence (P11413 whole entry): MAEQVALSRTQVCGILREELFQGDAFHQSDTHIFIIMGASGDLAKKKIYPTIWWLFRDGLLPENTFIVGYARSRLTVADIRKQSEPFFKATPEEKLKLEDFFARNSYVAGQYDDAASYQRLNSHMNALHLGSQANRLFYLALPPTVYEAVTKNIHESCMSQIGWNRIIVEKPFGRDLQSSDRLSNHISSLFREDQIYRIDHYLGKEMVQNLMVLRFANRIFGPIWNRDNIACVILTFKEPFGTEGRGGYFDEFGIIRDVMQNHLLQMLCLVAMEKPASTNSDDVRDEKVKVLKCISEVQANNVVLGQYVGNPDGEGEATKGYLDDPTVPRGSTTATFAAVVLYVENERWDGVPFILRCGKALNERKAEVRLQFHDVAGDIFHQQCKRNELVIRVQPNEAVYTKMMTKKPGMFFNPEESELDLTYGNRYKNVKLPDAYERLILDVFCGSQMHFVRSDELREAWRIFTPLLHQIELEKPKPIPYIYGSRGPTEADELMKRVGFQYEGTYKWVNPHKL
Cytochrome P450 2C9, sequence (P11712 whole entry): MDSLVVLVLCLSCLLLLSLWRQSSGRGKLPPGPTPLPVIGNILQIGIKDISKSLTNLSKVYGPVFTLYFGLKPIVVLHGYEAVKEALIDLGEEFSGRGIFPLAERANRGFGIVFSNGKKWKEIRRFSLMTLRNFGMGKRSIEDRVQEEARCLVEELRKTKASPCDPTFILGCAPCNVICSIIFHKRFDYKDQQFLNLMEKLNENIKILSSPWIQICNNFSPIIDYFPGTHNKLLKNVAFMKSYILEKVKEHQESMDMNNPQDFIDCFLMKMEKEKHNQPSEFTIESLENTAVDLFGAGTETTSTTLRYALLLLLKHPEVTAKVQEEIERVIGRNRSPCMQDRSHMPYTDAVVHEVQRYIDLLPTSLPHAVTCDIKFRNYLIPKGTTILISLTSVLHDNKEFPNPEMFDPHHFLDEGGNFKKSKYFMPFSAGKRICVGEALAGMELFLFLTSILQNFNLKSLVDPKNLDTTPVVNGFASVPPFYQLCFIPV

Broadly, the IC50 is the concentration that inhibits the measured activity by half. For `COc1cc(-c2nnc3n2N=C(c2ccccc2)CS3)cc(OC)c1OC`, the IC50 in data set [1] is > 80 µM (inactive).

As for `CC(C)(C)c1ccc(C(=O)CSc2nnc[nH]2)cc1`, the IC50 in [2] was 13.2 µM (active); in [3] it was 46 µM (active); in data set [4], 6.08 µM (active); in data set [5], > 100 µM (inactive); in data set [6] it was > 50 µM (inactive).

Broadly, the AC50 is the concentration giving half of the maximal activity seen. `COc1ccccc1NC(=S)NC(=O)C(C)C`: the AC50 in data set [7] is 50.3 µM (active).

For `N#C/C(=C\C=C\c1ccccc1)c1nc(-c2ccc3c(c2)OCO3)cs1`, the concentration at half-maximal activity (AC50) in data set [8] is 38.5 µM (active). Also, the EC50 in data set [9] was 9.03 µM (active).

Regarding `O=C(c1cnn2ccccc12)N1CCc2ccccc21`, the AC50 in data set [10] was 58.6 µM (active).

As to `COc1ccc(OCc2cc(C(=O)NC(C)c3cnn(C)c3)no2)c(Cl)c1` (stereo not given), the AC50 in data set [10] was 79.6 µM (active).

On to `O=C(NCCc1ccc(O)cc1)c1ccc(Cl)cc1`, for which the AC50 in data set [10] was 99 µM (active); in [11], 6.24 µM (active); in data set [12], 25.1 µM (inconclusive); in data set [13], “inconclusive”.

As to `O=C1CCN(c2ccccc2)N1` [PHENIDONE], the IC50 in data set [14] was 46.5 µM (active); in [1] it was 42.1 µM (inactive).

As to `Cc1ccc(O)c(C(=O)c2coc(=N)c(C(=O)NC(C)C)c2)c1`, the half-maximal activity concentration (AC50) in data set [7] is 23.8 µM (active). Moreover, the IC50 in data set [3] is 4.66 µM (active).

`CCCC(=O)Nc1ccc(NC(=O)c2ccccn2)cn1`: the AC50 in [7] is 58.3 µM (active).
